Measurements as given in US9657351B2, “MRNA-based gene expression for personalizing patient cancer therapy with an MDM2 antagonist” (Hoffmann-La Roche Inc., priority 2013, dated 2017).

Tests used:
Test in all cases: COMPOUND A In Vitro Assay
Assay type in all cases: cell-based
NCI-H1755 = details: Homo sapiens, Lung, TP53 Mutant
Method in brief: (§1)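 HTS, human cancer cell line panel (CELLO/CACTEL), MDM2 antagonist COMPOUND A (RG7112). Readout: IC50. Sensitive: IC50<=1; resistant: IC50>=10.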

LS513 = details: Homo sapiens
Method in brief: as §1

PC-3 = details: Homo sapiens, Prostate, TP53 Mutant
Method in brief: as §1

BT-20 = details: Homo sapiens, Breast, mammary gland, TP53 Mutant
Method in brief: as §1

KMS-34 = details: Homo sapiens, Lymphocyte, TP53 Mutant
Method in brief: as §1

Hs 38•T = details: Homo sapiens
Method in brief: as §1

A-204 = details: Homo sapiens, A204, Muscle, TP53 Mutant
Method in brief: as §1

NCI-H2347 = details: Homo sapiens, Lung, TP53 Wild type
Method in brief: as §1

Detroit 562 = details: Homo sapiens, Pharynx, TP53 Mutant
Method in brief: as §1

HCC1806 = details: Homo sapiens, Breast, mammary gland, TP53 Mutant
Method in brief: as §1

Capan-2 = details: Homo sapiens, Pancreas, TP53 Mutant
Method in brief: as §1

SR = details: Homo sapiens, Lymphocyte, TP53 Wild type
Method in brief: as §1

NCI-H69 = details: Homo sapiens, Lung, TP53 Mutant
Method in brief: as §1

HCC1937 = details: Homo sapiens, Breast, TP53 NA
Method in brief: as §1

HPAF-II = details: Homo sapiens, Pancreas, TP53 Mutant
Method in brief: as §1

KMM-1 = details: Homo sapiens, Lymphocyte, TP53 Mutant
Method in brief: as §1

SUM52PE = details: Homo sapiens, Breast, TP53 Wild type
Method in brief: as §1

HCC1395 = details: Homo sapiens, Breast, mammary gland, TP53 Mutant
Method in brief: as §1

RPMI-8226 = details: Homo sapiens, Lymphocyte B, peripheral blood, TP53 Mutant
Method in brief: as §1

MKN-74 = details: Homo sapiens
Method in brief: as §1

NCI-H292 = details: Homo sapiens, Lung, TP53 Wild type
Method in brief: as §1

SNU-1 = details: Homo sapiens
Method in brief: as §1

HT-29 = details: Homo sapiens, Intestine, large, colon, TP53 Mutant
Method in brief: as §1

HL-60 = details: Homo sapiens, Blood, TP53 Mutant
Method in brief: as §1

MFE-280 = details: Homo sapiens, Uterus, endometrium, TP53 Mutant
Method in brief: as §1

SW1417 = details: Homo sapiens, Intestine, large, colon, TP53 Mutant
Method in brief: as §1

HCC38 = details: Homo sapiens, Breast, mammary gland, TP53 Mutant
Method in brief: as §1

U-698-M = details: Homo sapiens, Tonsil, TP53 Mutant
Method in brief: as §1

SCH = details: Homo sapiens, Stomach, TP53 Mutant
Method in brief: as §1

NCI-H2081 = details: Homo sapiens, Lung, TP53 Wild type
Method in brief: as §1

MDA-MB-134-VI = details: Homo sapiens, Breast, mammary gland, TP53 Mutant
Method in brief: as §1

LP-1 = details: Homo sapiens, Lymphocyte, peripheral blood, TP53 Mutant
Method in brief: as §1

MDA-MB-453 = details: Homo sapiens, Breast, mammary gland, TP53 Mutant
Method in brief: as §1

KATO-III = details: Homo sapiens, Stomach, TP53 Mutant
Method in brief: as §1

NCI-H520 = details: Homo sapiens, Lung, TP53 Mutant
Method in brief: as §1

THP-1 = details: Homo sapiens, Blood, TP53 Mutant
Method in brief: as §1

NCI-H358 = details: Homo sapiens, Lung, bronchi, TP53 Mutant
Method in brief: as §1

NCI-H2228 = details: Homo sapiens, Lung, TP53 Mutant
Method in brief: as §1

Question: Which results are given for `CCOc1cc(C(C)(C)C)ccc1C1=N[C@@](C)(c2ccc(Cl)cc2)[C@@](C)(c2ccc(Cl)cc2)N1C(=O)N1CCN(CCCS(C)(=O)=O)CC1` [COMPOUND A]?
Answer: IC50 (NCI-H1755): 7.8 µM; IC50 (LS513; LS-513, LS513, Intestine, large, caecum, TP53 Wild type): 490 nM; IC50 (LS513; LS-513, LS513 cells): 500 nM; IC50 (PC-3): 9 µM; IC50 (BT-20): 3.6 µM; IC50 (KMS-34): 9.8 µM; IC50 (Hs 38•T; Hs 38•T cells): 700 nM; IC50 (Hs 38•T; Hs 38•T, Ovary, TP53 Wild type): 730 nM; IC50 (A-204): 8.4 µM; IC50 (NCI-H2347): 9 µM; IC50 (Detroit 562): 6.2 µM; IC50 (HCC1806): 11 µM; IC50 (Capan-2): 9.1 µM; IC50 (SR): 43 nM; IC50 (NCI-H69): 15 µM; IC50 (HCC1937): 15 µM; IC50 (HPAF-II): 10 µM; IC50 (KMM-1): 19 µM; IC50 (SUM52PE): 8.7 µM; IC50 (HCC1395): 20 µM; IC50 (RPMI-8226): 6.6 µM; IC50 (MKN-74; MKN-74, MKN-74, Muscle, smooth, stomach, TP53 Wild type): 880 nM; IC50 (MKN-74; MKN-74, MKN-74 cells): 900 nM; IC50 (NCI-H292): 1600 nM; IC50 (SNU-1; SNU1, SNU-1, Stomach, TP53 Wild type): 370 nM; IC50 (SNU-1; SNU1, SNU-1 cells): 400 nM; IC50 (HT-29): 7.4 µM; IC50 (HL-60): 7 µM; IC50 (MFE-280): 23 µM; IC50 (SW1417): 9.9 µM; IC50 (HCC38): 12 µM; IC50 (U-698-M): 9.8 µM; IC50 (SCH): 17 µM; IC50 (NCI-H2081): 17 µM; IC50 (MDA-MB-134-VI): 38 µM; IC50 (LP-1): 4.4 µM; IC50 (MDA-MB-453): 20 µM; IC50 (KATO-III): 9.7 µM; IC50 (NCI-H520): 17 µM; IC50 (THP-1): 9.7 µM; IC50 (NCI-H358): 8.1 µM; IC50 (NCI-H2228): 9.8 µM
